Measured values taken from patent publication US7615244B2, “Glycopeptide and peptide having a kokumi taste imparting function, and method of imparting the kokumi taste to foods” (Ajinomoto Co., Inc., priority 2003, dated 2009).
Marks after values point to notes of the source that are not given here.

What was measured:
[1] = Organoleptic evaluation of beef extract solution, paired comparison test; parameters: key to Kokumi taste vs control (mark): Δ: Equal or inferior in the kokumi taste to the control; O: Stronger in the kokumi taste than the control; OO: Remarkably stronger in the kokumi taste than the control; conditions: for Kokumi taste vs control (mark): 14 panelists
Procedure: In order to verify a taste improving function for a commercially available beef extract (manufactured by Bordon), the three glycopeptides and peptide were each added in an amount of 10 ppb by weight to a beef extract solution formulated according to the mixing ratio shown in the following Table 6, and then an organoleptic evaluation was performed in the same manner as in Example 1. Each resulting solution was subjected to organoleptic evaluation by 16 taste panelists according to a paired comparison test, using the non-added beef extract solution as the control. […]
In order to verify a taste improving function for a commercially available beef extract (manufactured by Bordon) in the same manner as in the organoleptic evaluation of Example 1, the glycopeptides and peptides listed in the following Table 15, were each added in an amount of 10 ppb, 1 ppm, or 100 ppm by weight to beef extract solutions formulated according to the mixing ratio shown in Table 6 above. Each resulting solution was subjected to organoleptic evaluation by 14 taste panelists according to a paired comparison test, using the non-added beef extract solution as the control.

[2] = Organoleptic evaluation of cheese sauce, paired comparison test; conditions: added 1 ppm by weight; vs non-added; n = 14
Procedure: In order to verify a taste improving function for cheese sauce, the three glycopeptides and peptide were each added in an amount of 1 ppm by weight to a cheese sauce prepared according to the formulation shown in the following Table 4, and then an organoleptic evaluation was performed in the same manner as in Example 1. Each of the sauces added with one of the three glycopeptides and peptide was subjected to organoleptic evaluation by 14 taste panelists according to a paired comparison test, using non-added cheese sauce as the control.
In order to verify the taste improving function of the liquid comprising enzymatically decomposed wheat gluten, that is, a seasoning containing the three glycopeptides and peptide, for cheese sauce, the seasoning comprising enzymatically decomposed wheat gluten (that is, the powdered seasoning of Example 1 formed from the decolorized liquid from which the activated carbon had been removed) was added in an amount of 0.05% by weight to a cheese sauce prepared according to the formulation shown in Table 4, and then an organoleptic evaluation was performed in the same manner as in Example 1. Organoleptic evaluation was carried out by 20 taste panelists according to a paired comparison test, using the non-added cheese sauce as the control.

[3] = Organoleptic evaluation of Mentsuyu, paired comparison test; conditions: added 1 ppb by weight; vs non-added; n = 16
From the text: In order to verify a taste improving function for “Mentsuyu” (a soup for Japanese noodle) in the same manner as in the organoleptic evaluation of Example 1, the three glycopeptides and peptide were each added in an amount of 1 ppb by weight to Mentsuyu prepared according to the formulation shown in the following Table 2. Each resulting solution was subjected to organoleptic evaluation by 16 taste panelists according to a paired comparison test, using non-added Mentsuyu as the control.
In order to verify the taste improving function of a liquid comprising enzymatically decomposed wheat gluten, that is, a seasoning containing the three glycopeptides and peptide, for Mentsuyu, the seasoning comprising enzymatically decomposed wheat gluten (that is, the decolorized liquid of Example 1 from which the activated carbon had been removed) was added in an amount of 0.1% by volume to Mentsuyu prepared according to the formulation shown in Table 2, and then an organoleptic evaluation was performed in the same manner as in Example 1. Organoleptic evaluation was carried out by 20 taste panelists according to a paired comparison test, using the non-added Mentsuyu as the control.

[4] = Organoleptic evaluation of chicken consommé soup, paired comparison test by taste panelists; conditions: for Panelists choosing the sample as the one with a stronger kokumi taste: vs non-added soup, n = 16
Procedure: 2 g of a commercially available chicken consommé soup (manufactured by Ajinomoto Co., Inc.) was added to 100 mL of water to prepare a chicken consommé soup, and then each of the fractions was added to the chicken consommé soup. […] These two fractions were each again fractionated by reversed phase HPLC (“Carbon-500” manufactured by Tosoh Corporation). The following conditions were used to obtain two peaks at 44.8 minutes and 46.6 minutes. For the fractionation, two solvents A and B were used. Solvent A was a 0.05% by volume trifluoroacetic acid (TFA) aqueous solution, and Solvent B was a 0.05% by volume TFA 50% by volume acetonitrile aqueous solution. The column was equilibrated with Solvent A. After injecting a sample, the proportion of Solvent B was increased linearly to 100% in 167 min. The fractionated two peaks were analyzed with an LC-MS/MS (liquid chromatography-tandem mass spectrometry), to confirm that the former peak had fragments, that is, [M+H]^+=m/z 1640, 1494, 1478, 1362, 1332, 1316, 1200, 1184, 1038, 876, 819, 673, and 470, and that the latter peak had fragments, that is, [M+H]^+=m/z 1478, 1346, 1332, 1316, 1200, 1184, 1038, 876, 819, 673, and 470. Further, the former and latter peaks were analyzed by some known methods of analysis such as NMR, a peptide sequencer, an enzymatic decomposition treatment, and the like (R.Takahashi, “Biochemical Experiment Methods 23: Method for Studying Glycoprotein Sugar Chain,” published by Gakkai Shuppan Center, 1989), to confirm that the peaks were due to the glycopeptides having the structures represented by Sequence formulas (I) (SEQ ID NO: 1) and (II) (SEQ ID NO: 1), respectively.
In order to confirm the kokumi taste imparting function and the threshold value of the glycopeptides and the peptide represented by Sequence formulas (I) to (III) (SEQ ID NO: 1) (hereinafter, the glycopeptides and the peptide represented by Sequence formulas (I) to (III) may also be referred to as Glycopeptide I, Glycopeptide II, and Peptide III, respectively), Glycopeptide I and Glycopeptide II were each added to a chicken consommé soup in such that the concentration thereof would be 0.1 ppb to 1.0 ppm by weight upon eating, and Peptide III was added to the chicken consommé soup in such that the concentration thereof would be 0.1 ppb to 100 ppm by weight upon eating. As a control, a non-added chicken consommé soup was prepared. For each of the three glycopeptides and peptide, organoleptic evaluation was carried out by 16 taste panelists according to a paired comparison test (the panelists should choose one with a stronger kokumi taste). In the above organoleptic evaluation, there was a significant difference in the effect caused by adding Glycopeptide I or II or Peptide III in the case where the concentration thereof was 1 ppb by weight or more upon eating. Therefore, the lower limit of the threshold value was set to 1 ppb by weight.

Substance	Kokumi taste vs control (mark) ([1]; added 1 ppm by weight)	Kokumi taste vs control (mark) ([1]; added 10 ppb by weight)	Kokumi taste vs control (mark) ([1]; added 100 ppm by weight)	Stronger kokumi taste (panelists) [2]	Stronger kokumi taste (panelists) ([1]; added 10 ppb by weight, vs non-added, n = 16)	Stronger kokumi taste (panelists) [3]	Panelists choosing the sample as the one with a stronger kokumi taste ([4]; amount added 0.1 ppb)	Panelists choosing the sample as the one with a stronger kokumi taste ([4]; amount added 1.0 ppb)	Panelists choosing the sample as the one with a stronger kokumi taste ([4]; amount added 1.0 ppm)	Panelists choosing the sample as the one with a stronger kokumi taste ([4]; amount added 10 ppb)	Panelists choosing the sample as the one with a stronger kokumi taste ([4]; amount added 100 ppm)	Lower limit of the threshold value (kokumi taste imparting function) ([4]; concentration upon eating giving a significant difference vs non-added soup) [ppb by weight]
Asn-His	◯	◯	◯◯	–	–	–	–	–	–	–	–	–
Asn-His-Thr	◯◯	◯	◯◯	–	–	–	–	–	–	–	–	–
His-Ser [reference compound]	Δ	Δ	Δ	–	–	–	–	–	–	–	–	–
Val-Asn [reference compound]	Δ	Δ	Δ	–	–	–	–	–	–	–	–	–
Val-Asn-His	◯◯	◯	◯◯	–	–	–	–	–	–	–	–	–
Val-Asn-His-Thr (VNHT; printed: Val-Asn-His-Thr) [Peptide III]	◯◯	◯◯	◯◯	12*	13*	13*	9	13*	16***	14**	16***	1
Val-Gln [reference compound]	Δ	Δ	Δ	–	–	–	–	–	–	–	–	–
